{"source": "patent US10647737B2", "about": "“Sulfated-glycolipids as adjuvants for vaccines” (National Research Council of Canada, priority 2014, dated 2020)", "key": {"[1]": {"assay": "Archaeosome formation by hydration of dried lipid", "assay_type": "physicochemical", "conditions": "lipid hydrated in PBS with antigen", "description": "(§1) In one method, archaeosomes were formed by hydrating 20-30 mg dried lipid at 40° C. in 2 ml PBS buffer (10 mM sodium phosphate, 160 mM NaCl, pH 7.1) with the protein antigen OVA dissolved at 10 mg/ml. Vesicle size was reduced to about 100-150 nm diameter by brief sonication in a sonic bath (Fisher Scientific), and the portion of OVA antigen not entrapped was removed by centrifugation from 7 ml PBS followed by 2 washes (200,000×g max for 30 min). Vesicle pellets were resuspended in 2-2.5 ml PBS and filter sterilized through 0.45 μm Millipore filters. Sterile conditions and pyrogen-free water was used throughout.\nIn another method, lipids dissolved in t-butanol/water received antigen dissolved in an equal volume of water. The sample was then lyophilized to a powder and rehydrated in PBS buffer. Size was reduced, antigen not entrapped was removed, and filtration conducted as above."}, "[2]": {"tested_on": "anti OVA antibody (IgG)", "assay": "Anti-OVA antibody titre in sera of immunized mice (Elisa)", "assay_type": "in vivo", "conditions": "OVA-archaeosomes, immunized day 0 and 21; FIG. 13", "description": "(§2) C57BL6 female mice ([…]) were immunized subcutaneously with 0.1 ml vaccines containing the equivalent of 20 μg OVA, often entrapped in archaeosomes of various compositions, A booster consisting of the same vaccine and route was given most often on week 3. In experiments addressing ability of archaeosomes to evoke immune response to a cancer self-antigen, TRP or Gp100 antigen in archaeosomes was administered at a dose of 15 μg antigen per injection and booster given on week 3.5 and week 8.5. In some experiments an additional third injection was given (˜95 days after first dose). All protocols and SOPs were approved by the NRC Animal Care Committee and conducted within the guidelines of the Canadian Council on Animal Care.\n(§3) As a measure of CD4^+ T cell response, antibody raised to the antigen in the vaccine and present in the sera of mice (5-6 mice/group), was quantified by Elisa according to a previous description (Krishnan, L., Dicaire, C. J., Patel, G. B., and Sprott, G. D. 2000. Infect, Immun. 68:54-63). The CD8^+ T cell response was quantified by sacrificing 2 mice/group and pooling their splenic cells. These were assayed in triplicate for antigen-specific responses by Elispot and CTL methods (Krishnan, L., Sad, S., Patel, G. B., and Sprott, G. D. 2003. Cancer Res. 63:2526-2534)."}, "[3]": {"tested_on": "CD8^+ T cell response", "assay": "Elispot of IFN-γ-secreting splenic cells of mice immunized with OVA-archaeosomes", "assay_type": "in vivo", "conditions": "OVA-loaded archaeosomes s.c. at 0 and 3 weeks; 6 weeks post first injection; FIG. 2", "description": "as §2, with “All protocols and SOPs were approved by the NRC Animal Care Committee and conducted within the guidelines of the Canadian Council on Animal Care.” left out\nas §3, with “These were assayed in triplicate for antigen-specific responses by Elispot and CTL methods (Krishnan, L., Sad, S., Patel, G. B., and Sprott, G. D. 2003. Cancer Res. 63:2526-2534).” left out\nIn a first example, adjuvant activity of the natural sulfated glycolipid purified from Haloferax volcanii (6′-HSO3-D-Manp-α-1,2-D-Glcp-α-1,1-archaeol) was compared to a synthetic 6′-S-lactosylarchaeol, not found in nature. […] CD8^+ T cell responses measured by Elispot splenic cell assays. […]"}, "[4]": {"assay": "Average diameter of archaeosomes (Malvern Nano Zetasizer)", "assay_type": "physicochemical", "description": "as §1\n(§4) Quantification of antigen loading was conducted by separating protein(s) from lipids using SDS polyacrylamide gel electrophoresis as described (Sprott, G. D., Patel, G. B., and Krishnan, L. 2003. Methods Enzymol, 373:155-172). Loading of synthetic archaeosomes with antigens was also determined using SDS Lowry with standard curves prepared for the respective antigen. Loading was based on μg protein/mg salt corrected dry weight of lipid. Average diameters based on Intensity and Zeta potentials were measured using a Malvern Nano Zetasizer with a He/Ne laser (Spectra Research Corp., Ontario, Canada)."}, "[5]": {"assay": "Antigen loading of archaeosomes (SDS PAGE / SDS Lowry)", "assay_type": "physicochemical", "conditions": "OVA antigen entrapped in archaeosomes", "description": "as §1\nIn another method, lipids dissolved in t-butanol/water received antigen dissolved in an equal volume of water. The sample was then lyophilized to a powder and rehydrated in PBS buffer. […]\nas §4, with “Loading was based on μg protein/mg salt corrected dry weight of lipid.” left out"}, "[6]": {"tested_on": "EL-4+TRP target cells", "assay": "CD8+ T cell response (ELISPOT, CTL) to cancer self-antigen TRP / Gp100 delivered in archaeosomes", "assay_type": "in vivo, mice", "conditions": "TRP-liposomes; 15.5 weeks; FIG. 12", "description": "as §2, with “All protocols and SOPs were approved by the NRC Animal Care Committee and conducted within the guidelines of the Canadian Council on Animal Care.” left out\nas §3, with “These were assayed in triplicate for antigen-specific responses by Elispot and CTL methods (Krishnan, L., Sad, S., Patel, G. B., and Sprott, G. D. 2003. Cancer Res. 63:2526-2534).” left out\nPeptides HLA.A2/H-2K^b TRP-2180-188 (SVYDFFVWL), CTL epitope from tyrosinase related protein-2 and Gp10025-35 (KVPRNQDWL) from human melanoma antigen Gp100 were synthesized. […] Quantification was done using a calibration curve based on known amounts of each of the respective peptides. […]"}}, "note": "“And” between values parts separate entries of the source, which are not always exact repeats. Equal entries are not always repeated."}
{"compound": "CC(C)CCC[C@@H](C)CCC[C@@H](C)CCC[C@@H](C)CCOC[C@@H](CO[C@@H]1O[C@H](CO)[C@@H](O[C@@H]2O[C@H](CO)[C@H](O)[C@H](O)[C@H]2O)[C@H](O)[C@H]1O)OCC[C@H](C)CCC[C@H](C)CCC[C@H](C)CCCC(C)C", "note": "[LA, lactosylarchaeol]", "values": [{"measurement": "archaeosome vesicle formation / hydrating ability", "setting": "[1]", "result": "did not hydrate well"}, {"measurement": "archaeosome vesicle formation / hydrating ability", "setting": "[1]; listed as lactosylarchaeol", "result": "did not form"}]}
{"compound": "CC(C)CCCC(C)CCCC(C)CCCC(C)CCOCC(CO[C@@H]1O[C@H](CO[C@@H]2O[C@H](CO[C@@H]3O[C@H](CO)[C@@H](O)[C@H](O)[C@H]3O)[C@@H](O)[C@H](O)[C@H]2O)[C@@H](O)[C@H](O)[C@H]1O)OCCC(C)CCCC(C)CCCC(C)CCCC(C)C", "note": "(stereo partly drawn) [Glc3A, β-Glcp-(1,6)-β-Glcp-(1,6)-β-D-Glcp-(1,1)-archaeol]", "values": [{"measurement": "archaeosome vesicle formation / hydrating ability", "setting": "[1]", "result": "did not form"}]}
{"compound": "CC(C)CCCC(C)CCCC(C)CCCC(C)CCOCC(CO[C@@H]1O[C@H](CO)[C@@H](O[C@@H]2O[C@H](CO[C@@H]3O[C@H](COS(=O)(=O)O)[C@@H](O)[C@H](O)[C@H]3O)[C@H](O)[C@H](O)[C@H]2O)[C@H](O)[C@H]1O)OCCC(C)CCCC(C)CCCC(C)CCCC(C)C", "note": "(stereo partly drawn) [sulfated-trisaccharide archaeol, 6′-sulfated β-D-Glcp-(1,6)-β-D-Galp-(1,4)-β-D-Glcp-(1,1)-archaeol]", "values": [{"measurement": "antibody response to OVA in serum", "setting": "[2]", "result": "strong antibody response"}]}
{"compound": "CC(C)CCCC(C)CCCC(C)CCCC(C)CCOCC(CO[C@@H]1O[C@H](CO)[C@@H](O[C@@H]2O[C@H](COS(=O)(=O)O)[C@H](OS(=O)(=O)O)[C@H](O)[C@H]2O)[C@H](O)[C@H]1O)OCCC(C)CCCC(C)CCCC(C)CCCC(C)C", "note": "(stereo partly drawn) [di-sulfated LA, 4′-6′-disulfate-β-D-Galp-(1,4)-β-D-Glcp-(1,1)-archaeol]", "values": [{"measurement": "antibody response to OVA in serum", "setting": "[2]", "result": "strong antibody response"}]}
{"compound": "CC(C)CCCC(C)CCCC(C)CCCC(C)CCOCC(CO[C@@H]1OC(CO)[C@@H](O[C@@H]2OC(COS(=O)(=O)[O+]=[Na])[C@H](O)[C@H](O)C2O)[C@H](O)C1O)OCCC(C)CCCC(C)CCCC(C)CCCC(C)C", "note": "(stereo partly drawn) [SLA, (2R)-2,3-Bis[(3R,7R,11R)-3,7,11,15-tetramethylhexadecyloxy]propan-1-yl 4-O-(6-O-sulfo-β-D-galactopyranosyl)-β-D-glucopyranoside]", "values": [{"measurement": "CD8+ T cell response, frequency of IFN-γ-secreting splenic cells (Elispot)", "setting": "[3]", "result": "highest response"}, {"measurement": "Average Diameter (nm) 12 weeks", "setting": "[4]; 12 weeks storage", "result": 176, "unit": "nm"}, {"measurement": "Average Diameter (nm) 20 weeks", "setting": "[4]; 20 weeks storage", "result": 168, "unit": "nm"}, {"measurement": "Average Diameter (nm) At first injection", "setting": "[4]; at first injection", "result": "172 nm and 168 nm"}, {"measurement": "Loading (μg antigen/mg archaeosome)", "setting": "[5]", "result": "35.0 μg antigen/mg archaeosome and 22.0 μg antigen/mg archaeosome"}, {"measurement": "adjuvant activity and CD8+ T cell response, archaeol from H. salinarum versus H. volcanii", "setting": "[6]", "result": "equally effective"}, {"measurement": "archaeosome vesicle formation / hydrating ability", "setting": "[1]", "result": "excellent hydrating ability"}, {"measurement": "antibody response to OVA in serum", "setting": "[2]", "result": "strong antibody response"}]}
